Values of other authors, collected in patent publication US20220401390A1, “TREATMENTS OF DIABETIC MACULAR EDEMA AND IMPAIRED VISUAL ACUITY” (KALVISTA PHARMACEUTICALS LIMITED, priority 2019, published 2022).

Columns and labels:
[1] = tested on: patients with DME; settings: clinical trials, after one year; cited from earlier work
[2] = tested on: diabetic rats; settings: cited from earlier work

Molecule	Efficacy compared with laser therapy [1]	Retinal vascular permeability and retinal blood flow abnormalities [2]
aflibercept: anti-VEGF therapy for DME currently in use	more effective than laser therapy	
N=C(N)c1ccc(CNC(=O)c2cnn(Cc3ccccc3)c2)cc1 [ASP-440]		ameliorated
pegaptanib	more effective than laser therapy	
bevacizumab: anti-VEGF therapy for DME currently in use	more effective than laser therapy	
ranibizumab: anti-VEGF therapy for DME currently in use (antibody, chains of the INN, looked up, V domains shown, Fab, anti-VEGF therapy for DME currently in use) VH: EVQLVESGGGLVQPGGSLRLSCAASGYDFTHYGMNWVRQAPGKGLEWVGWINTYTGEPTYAADFKRRFTFSLDTSKSTAYLQMNSLRAEDTAVYYCAKYPYYYGTSHWYFDVWGQGTLVTVSS VL: DIQLTQSPSSLSASVGDRVTITCSASQDISNYLNWYQQKPGKAPKVLIYFTSSLHSGVPSRFSGSGSGTDFTLTISSLQPEDFATYYCQQYSTVPWTFGQGTKVEIK	more effective than laser therapy	
